Experimental data: patent US6706663B2, “Herbicidal 3-heterocyclic substituted benzisothiazole and benzisoxazole compounds” (Wyeth, priority 2000, dated 2004)

Columns and labels:
SETVI (Setaria viridis) [1] = test: Postemergence herbicidal evaluation; type: in vivo, (L.) Beau; settings: for SETVI herbicidal rating: postemergence
Method in brief: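 ~2-wk seedlings; spray 0.0040–1.000 kg/ha in 50/50 acetone/water + 0.5% TWEEN 20, 40 psi nozzle. Greenhouse hold; visual 0–9 rating vs control at 4–5 wk; multiple tests averaged.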

[2] = system: MOOVA (Monochoria vaginalis); test: Flooded paddy, preemergence weed control; type: in vivo, Presl.; settings: rated 3-4 weeks after treatment, 0-9 rating scale
Method in brief: (§1)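 In this preemergence paddy assay, weed seeds or organs are sown at up to 0.5 cm in silt loam and covered by 1.5–3 cm of water for the full test period. After treatment the pots are kept in a greenhouse, and herbicidal effect is rated 0-9 visually against a control.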

[3] = system: IPOHE (Ipomoea hederacea); test: Preemergence herbicidal evaluation; type: in vivo, (L.) Jacq.; settings: rated 4-5 weeks after treatment
GALAP (Galium aparine) [4] = test: Postemergence herbicidal evaluation; type: in vivo; settings: for GALAP herbicidal rating: postemergence
Method in brief: (§2)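 Seedlings grown about two weeks in flats, sprayed, then kept under standard greenhouse care. Rated visually 4–5 weeks after treatment on a 0–9 scale (stand, vigour, malformation, size, chlorosis, overall appearance) relative to untreated control; repeat tests averaged.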

GALAP (Galium aparine) [5] = test: Preemergence herbicidal evaluation; type: in vivo; settings: rated 4-5 weeks after treatment
Method in brief: (§3)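 Scores (0–9) reflect visual comparison with control plants for stand, vigor, malformation, size and chlorosis. Seeds in potting soil received a post-planting spray of compound in aqueous acetone and grew in a greenhouse until assessment 4–5 weeks later.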

[6] = system: ECHCG (Echinochloa crus-galli); test: Preemergence herbicidal evaluation; type: in vivo, (L.) Beau; settings: rated 4-5 weeks after treatment
Method in brief: as §3

SETVI (Setaria viridis) [7] = test: Preemergence herbicidal evaluation; type: in vivo, (L.) Beau; settings: rated 4-5 weeks after treatment
Method in brief: as §3

CYPIR (Cyperus iria) = test: Flooded paddy, preemergence weed control; type: in vivo; settings: rated 3-4 weeks after treatment, 0-9 rating scale
Method in brief: as §1

ZEAMX (Corn, Field) = test: Preemergence herbicidal evaluation; type: in vivo, Zea mays, L.; settings: rated 4-5 weeks after treatment
[8] = system: GLXMAW (Soybean, Williams); test: Preemergence herbicidal evaluation; type: in vivo, Glycine max, (L.) Merr. cv Williams; settings: rated 4-5 weeks after treatment
[9] = system: GLXMAW (Soybean, Williams); test: Postemergence herbicidal evaluation; type: in vivo, Glycine max, (L.) Merr. cv Williams; settings: for GLXMAW herbicidal rating: postemergence
Method in brief: as §2

For `Cn1c(C(F)(F)F)cc(=O)n(-c2ccc3snc(C4OCCCS4)c3c2)c1=O` (stereo not shown) [Compound 34, 1-methyl-3-[3-(1,3-oxathian-2-yl)-1,2-benzisothiazol-5-yl]-6-(trifluoromethyl)uracil], the SETVI herbicidal rating (SETVI (Setaria viridis) [1]; rate 0.0320 kg/ha) was 9.0, the SETVI herbicidal rating (SETVI (Setaria viridis) [1]; rate 0.0620 kg/ha) was 9.0 and the “Postemergence herbicidal rating, SETVI” value (SETVI (Setaria viridis) [1]; rate 0.0320 kg/ha) was 6.0. For the same compound, the “Postemergence herbicidal rating, SETVI” value (SETVI (Setaria viridis) [1]; rate 0.0620 kg/ha) was 8.0, the “herbicidal rating, MOOVA” value ([2]; rate 0.0320 kg/ha) was 9.0 and the “herbicidal rating, MOOVA” value ([2]; rate 0.0620 kg/ha) was 9.0. The “herbicidal rating, MOOVA” value ([2]; rate 0.1250 kg/ha) was 9.0, the “IPOHE preemergence herbicidal rating” value ([3]; Rate 0.0620 kg/ha) was 9.0 and the “Preemergence herbicidal rating IPOHE” value ([3]; Rate 0.0620 kg/ha) was 6.0. The “IPOHE preemergence herbicidal rating” value ([3]; Rate 0.1250 kg/ha) was 9.0, the “Preemergence herbicidal rating IPOHE” value ([3]; Rate 0.1250 kg/ha) was 6.0 and the “IPOHE preemergence herbicidal rating” value ([3]; Rate 0.2500 kg/ha) was 9.0. For the same compound, the “Preemergence herbicidal rating IPOHE” value ([3]; Rate 0.2500 kg/ha) was 9.0, the GALAP herbicidal rating (GALAP (Galium aparine) [4]; rate 0.0320 kg/ha) was 2.0 and the GALAP herbicidal rating (GALAP (Galium aparine) [4]; rate 0.0620 kg/ha) was 6.0. The “Postemergence herbicidal rating, GALAP” value (GALAP (Galium aparine) [4]; rate 0.0320 kg/ha) was 6.0, the “Postemergence herbicidal rating, GALAP” value (GALAP (Galium aparine) [4]; rate 0.0620 kg/ha) was 7.0 and the “GALAP preemergence herbicidal rating” value (GALAP (Galium aparine) [5]; Rate 0.0620 kg/ha) was 5.0. For the same compound, the “Preemergence herbicidal rating GALAP” value (GALAP (Galium aparine) [5]; Rate 0.0620 kg/ha) was 9.0, the “GALAP preemergence herbicidal rating” value (GALAP (Galium aparine) [5]; Rate 0.1250 kg/ha) was 9.0 and the “Preemergence herbicidal rating GALAP” value (GALAP (Galium aparine) [5]; Rate 0.1250 kg/ha) was 9.0. For the same compound, the “GALAP preemergence herbicidal rating” value (GALAP (Galium aparine) [5]; Rate 0.2500 kg/ha) was 9.0, the “Preemergence herbicidal rating GALAP” value (GALAP (Galium aparine) [5]; Rate 0.2500 kg/ha) was 9.0 and the “ECHCG preemergence herbicidal rating” value ([6]; Rate 0.0620 kg/ha) was 7.0. The “Preemergence herbicidal rating ECHCG” value ([6]; Rate 0.0620 kg/ha) was 9.0, the “ECHCG preemergence herbicidal rating” value ([6]; Rate 0.1250 kg/ha) was 8.0 and the “Preemergence herbicidal rating ECHCG” value ([6]; Rate 0.1250 kg/ha) was 9.0. The “ECHCG preemergence herbicidal rating” value ([6]; Rate 0.2500 kg/ha) was 9.0, the “Preemergence herbicidal rating ECHCG” value ([6]; Rate 0.2500 kg/ha) was 9.0 and the “SETVI preemergence herbicidal rating” value (SETVI (Setaria viridis) [7]; Rate 0.0620 kg/ha) was 9.0. For the same compound, the “Preemergence herbicidal rating SETVI” value (SETVI (Setaria viridis) [7]; Rate 0.0620 kg/ha) was 9.0, the “SETVI preemergence herbicidal rating” value (SETVI (Setaria viridis) [7]; Rate 0.1250 kg/ha) was 9.0 and the “Preemergence herbicidal rating SETVI” value (SETVI (Setaria viridis) [7]; Rate 0.1250 kg/ha) was 9.0. The “SETVI preemergence herbicidal rating” value (SETVI (Setaria viridis) [7]; Rate 0.2500 kg/ha) was 9.0, the “Preemergence herbicidal rating SETVI” value (SETVI (Setaria viridis) [7]; Rate 0.2500 kg/ha) was 9.0 and the “herbicidal rating, CYPIR” value (CYPIR (Cyperus iria); rate 0.0320 kg/ha) was 9.0. For the same compound, the “herbicidal rating, CYPIR” value (CYPIR (Cyperus iria); rate 0.0620 kg/ha) was 7.0, the “ZEAMX preemergence herbicidal rating” value (ZEAMX (Corn, Field); Rate 0.0620 kg/ha) was 5.0 and the “Preemergence herbicidal rating ZEAMX” value (ZEAMX (Corn, Field); Rate 0.0620 kg/ha) was 4.5. For the same compound, the “ZEAMX preemergence herbicidal rating” value (ZEAMX (Corn, Field); Rate 0.1250 kg/ha) was 7.0, the “Preemergence herbicidal rating ZEAMX” value (ZEAMX (Corn, Field); Rate 0.1250 kg/ha) was 6.0 and the “ZEAMX preemergence herbicidal rating” value (ZEAMX (Corn, Field); Rate 0.2500 kg/ha) was 9.0. For the same compound, the “Preemergence herbicidal rating ZEAMX” value (ZEAMX (Corn, Field); Rate 0.2500 kg/ha) was 6.5, the “GLXMAW preemergence herbicidal rating” value ([8]; Rate 0.0620 kg/ha) was 7.5 and the “Preemergence herbicidal rating GLXMAW” value ([8]; Rate 0.0620 kg/ha) was 6.5. For the same compound, the “GLXMAW preemergence herbicidal rating” value ([8]; Rate 0.1250 kg/ha) was 9.0, the “Preemergence herbicidal rating GLXMAW” value ([8]; Rate 0.1250 kg/ha) was 7.0 and the “GLXMAW preemergence herbicidal rating” value ([8]; Rate 0.2500 kg/ha) was 9.0. For the same compound, the “Preemergence herbicidal rating GLXMAW” value ([8]; Rate 0.2500 kg/ha) was 7.0, the GLXMAW herbicidal rating ([9]; rate 0.0320 kg/ha) was 6.5 and the GLXMAW herbicidal rating ([9]; rate 0.0620 kg/ha) was 6.5. For the same compound, the “Postemergence herbicidal rating, GLXMAW” value ([9]; rate 0.0320 kg/ha) was 9.0 and the “Postemergence herbicidal rating, GLXMAW” value ([9]; rate 0.0620 kg/ha) was 9.0.

In the case of `Cn1c(C(F)(F)F)cc(=O)n(-c2ccc3snc(C4OCC(C)(C)CO4)c3c2)c1=O` [Compound 36, 3-[3(5,5-dimethyl-m-dioxan-2-yl)-1,2-benzisothiazol-5-yl]-1-methyl-6-(trifluoromethyl)uracil], the “Postemergence herbicidal rating, SETVI” value (SETVI (Setaria viridis) [1]; rate 0.0320 kg/ha) is reported as 4.0, the “Postemergence herbicidal rating, SETVI” value (SETVI (Setaria viridis) [1]; rate 0.0620 kg/ha) is reported as 9.0 and the “herbicidal rating, MOOVA” value ([2]; rate 0.0080 kg/ha) is reported as 9.0. For the same compound, the “herbicidal rating, MOOVA” value ([2]; rate 0.0320 kg/ha) was 9.0, the “IPOHE preemergence herbicidal rating” value ([3]; Rate 0.0620 kg/ha) was 3.5 and the “IPOHE preemergence herbicidal rating” value ([3]; Rate 0.1250 kg/ha) was 6.5. The “IPOHE preemergence herbicidal rating” value ([3]; Rate 0.2500 kg/ha) was 9.0, the “Postemergence herbicidal rating, GALAP” value (GALAP (Galium aparine) [4]; rate 0.0320 kg/ha) was 4.0 and the “Postemergence herbicidal rating, GALAP” value (GALAP (Galium aparine) [4]; rate 0.0620 kg/ha) was 5.0. For the same compound, the “GALAP preemergence herbicidal rating” value (GALAP (Galium aparine) [5]; Rate 0.0620 kg/ha) was 5.0, the “GALAP preemergence herbicidal rating” value (GALAP (Galium aparine) [5]; Rate 0.1250 kg/ha) was 9.0 and the “GALAP preemergence herbicidal rating” value (GALAP (Galium aparine) [5]; Rate 0.2500 kg/ha) was 9.0. For the same compound, the “ECHCG preemergence herbicidal rating” value ([6]; Rate 0.0620 kg/ha) was 9.0, the “ECHCG preemergence herbicidal rating” value ([6]; Rate 0.1250 kg/ha) was 9.0 and the “ECHCG preemergence herbicidal rating” value ([6]; Rate 0.2500 kg/ha) was 9.0. The “SETVI preemergence herbicidal rating” value (SETVI (Setaria viridis) [7]; Rate 0.0620 kg/ha) was 9.0, the “SETVI preemergence herbicidal rating” value (SETVI (Setaria viridis) [7]; Rate 0.1250 kg/ha) was 9.0 and the “SETVI preemergence herbicidal rating” value (SETVI (Setaria viridis) [7]; Rate 0.2500 kg/ha) was 9.0. The “herbicidal rating, CYPIR” value (CYPIR (Cyperus iria); rate 0.0080 kg/ha) was 0.0, the “herbicidal rating, CYPIR” value (CYPIR (Cyperus iria); rate 0.0320 kg/ha) was 9.0 and the “herbicidal rating, CYPIR” value (CYPIR (Cyperus iria); rate 0.1250 kg/ha) was 9.0. For the same compound, the “ZEAMX preemergence herbicidal rating” value (ZEAMX (Corn, Field); Rate 0.0620 kg/ha) was 8.0, the “ZEAMX preemergence herbicidal rating” value (ZEAMX (Corn, Field); Rate 0.1250 kg/ha) was 8.0 and the “ZEAMX preemergence herbicidal rating” value (ZEAMX (Corn, Field); Rate 0.2500 kg/ha) was 9.0. For the same compound, the “GLXMAW preemergence herbicidal rating” value ([8]; Rate 0.0620 kg/ha) was 8.0, the “GLXMAW preemergence herbicidal rating” value ([8]; Rate 0.1250 kg/ha) was 9.0 and the “GLXMAW preemergence herbicidal rating” value ([8]; Rate 0.2500 kg/ha) was 9.0. For the same compound, the “Postemergence herbicidal rating, GLXMAW” value ([9]; rate 0.0320 kg/ha) was 7.5 and the “Postemergence herbicidal rating, GLXMAW” value ([9]; rate 0.0620 kg/ha) was 9.0.
